Patent publication US20100113438A1, “CLASS OF HISTONE DEACETYLASE INHIBITORS” (DAC S.R.L., priority 2006, published 2010)

Experiments:
[1] = Metabolic stability in hepatic microsomes (human); assay type: in vitro ADME; conditions: human hepatic microsomes 0.5 mg/ml, compound 1 μM, 37° C., pH 7.4, 30 min
Procedure: (§1) The test compound was dissolved in DMSO at the final concentration of 1 μM and pre-incubated for 10 min at 37° C. in potassium phosphate buffer pH 7.4 together with mouse or human hepatic microsomes (Xenotech) at the final concentration of 0.5 mg/ml.
(§2) After the pre-incubation the reaction was started by adding the cofactor mixture (NADP, G6P, G6P-DH); aliquots were taken at time 0 and 30 min, added to acetonitrile in order to stop the reaction. After centrifugation the supernatant was separated and analyzed by LC-MS/MS.
(§3) A control sample without cofactor was always studied in parallel in order to check the chemical stability of the test compound.
(§4) Two reference compounds of known metabolic stability 7-ethoxycoumarin and propranolol were present each time to access the validity of the experiment.
(§5) A fixed concentration of verapamil was added in each sample as internal standard for the LC-MS/MS analysis.
(§6) The percentage of the compound remaining after 30 min incubation period was calculated according the following equation: [area at time 30 min]/[area at time 0 min]*100%.

[2] = Metabolic stability in hepatic microsomes (mouse); assay type: in vitro ADME; conditions: mouse hepatic microsomes 0.5 mg/ml, compound 1 μM, 37° C., pH 7.4, 30 min
Procedure: as §1, §2, §3, §4, §5, §6

[3] = tested on: HDAC (nuclear extract of HeLa cells); assay: Assay of enzyme inhibition of HDAC (BIOMOL Kit); assay type: biochemical; conditions: substrate 116 μM
Procedure: The in-vitro activity of HDAC inhibitors was assayed by means of a biochemical assay using a BIOMOL Kit, according to the recommended experimental conditions. […] The samples were incubated for 10 minutes at room temperature and then exposed to a developer (15 minutes at room temperature). In this last step a fluorophore was produced, whose fluorescence was measured using an excitation wavelength of 355 nm and an emission at 460 nm.

Row | SMILES | Met. human (percentage of the compound remaining after 30 min incubation) [1] | Met. mouse (percentage of the compound remaining after 30 min incubation) [2] | IC50 [3]
1 | CN1CCN(c2ccccc2C(=O)/C=C/c2ccc(/C=C/C(=O)NO)cc2)CC1 [Example 1, (E)-N-Hydroxy-3-(4-{(E)-3-[2-(4-methyl-piperazin-1-yl)-phenyl]-3-oxo-propenyl}-phenyl)-acrylamide] | 38.16% | 33.81% | –
2 | CN(C)C1CCN(c2ccc(C(=O)/C=C/c3ccc(/C=C/C(=O)NO)cc3)cc2)CC1 [Example 4, (E)-3-(4-{(E)-3-[4-(4-Dimethylamino-piperidin-1-yl)-phenyl]-3-oxo-propenyl}-phenyl)-N-hydroxy-acrylamide] | 41.88% | 14.00% | –
3 | CN1CCN(Cc2ccc(C(=O)/C=C/c3ccc(/C=C/C(=O)NO)cc3)cc2)CC1 [Example 7, (E)-N-Hydroxy-3-(4-{(E)-3-[4-(4-methyl-piperazin-1-yl-methyl)-phenyl]-3-oxo-propenyl}-phenyl)-acrylamide] | 61.16% | 16.75% | –
4 | O=C(/C=C/c1ccc(/C=C/C(=O)c2ccc(N3CCNCC3)cc2)cc1)NO [Example 15, (E)-N-Hydroxy-3-{4-[(E)-3-(4-piperazin-1-yl-phenyl)-3-oxo-propenyl]-phenyl}-acrylamide] | 42.58% | 30.5% | –
5 | CN1CCN(c2cc(Cl)cc(C(=O)/C=C/c3ccc(/C=C/C(=O)NO)cc3)c2)CC1 [Example 25, (E)-3-(4-{(E)-3-[3-Chloro-5-(4-methyl-piperazin-1-yl)-phenyl]-3-oxo-propenyl}-phenyl)-N-hydroxy-acrylamide] | 57.28% | 84.89% | 35 nM
6 | O=C(/C=C/c1ccc(/C=C/C(=O)c2ccc(CN3CCNCC3)cc2)cc1)NO [Example 26, (E)-N-Hydroxy-3-{4-[(E)-3-oxo-3-(4-piperazin-1-ylmethyl-phenyl)-propenyl]-phenyl}-acrylamide] | 50.84% | 42.41% | –
7 | CC(=O)N1CCN(Cc2ccc(C(=O)/C=C/c3ccc(/C=C/C(=O)NO)cc3)cc2)CC1 [Example 30, (E)-3-(4-{(E)-3-[4-(4-Acetyl-piperazin-1-ylmethyl)-phenyl]-3-oxo-propenyl}-phenyl)-N-hydroxy-acrylamide] | – | – | 25 nM
8 | C[C@@H]1CN(c2ccc(C(=O)/C=C/c3ccc(/C=C/C(=O)NO)nc3)cc2)C[C@H](C)N1C [Example 39, (E)-N-Hydroxy-3-(5-{(E)-3-oxo-3-[4-((3R,5S)-3,4,5-trimethyl-piperazin-1-yl)-phenyl]-propenyl}-pyridin-2-yl)-acrylamide] | 44.35% | 20.29% | 6.1 nM
9 | CC(=O)N1CCN(c2ccc(C(=O)/C=C/c3ccc(/C=C/C(=O)NO)nc3)cc2)CC1 [Example 42, (E)-3-(5-{(E)-3-[4-(4-Acetyl-piperazin-1-yl)-phenyl]-3-oxo-propenyl}-pyridin-2-yl)-N-hydroxy-acrylamide] | 35.27% | 50.47% | 4.8 nM
10 | C[C@@H]1CN(c2cccc(C(=O)/C=C/c3ccc(/C=C/C(=O)NO)nc3)c2)C[C@H](C)N1C [Example 43, (E)-N-Hydroxy-3-(5-{(E)-3-oxo-3-[3-((3R,5S)-3,4,5-trimethyl-piperazin-1-yl)-phenyl]-propenyl}-pyridin-2-yl)-acrylamide] | 37.29% | 42.45% | 4 nM
11 | CN1CCC(Cc2ccc(C(=O)/C=C/c3ccc(/C=C/C(=O)NO)nc3)cc2)CC1 [Example 44, (E)-N-Hydroxy-3-(5-{(E)-3-[4-(1-methyl-piperidin-4-ylmethyl)-phenyl]-3-oxo-propenyl}-pyridin-2-yl)-acrylamide] | 34.38% | 54.56% | 1.3 nM
12 | O=C(/C=C/c1ccc(/C=C/C(=O)c2ccc(N3CCNCC3)cc2)cn1)NO [Example 45, (E)-N-Hydroxy-3-{5-[(E)-3-oxo-3-(4-piperazin-1-yl-phenyl)-propenyl]-pyridin-2-yl}-acrylamide] | 53.65% | 43.41% | 0.7 nM
13 | CN1CCN(Cc2ccccc2C(=O)/C=C/c2ccc(/C=C/C(=O)NO)nc2)CC1 [Example 47, (E)-N-Hydroxy-3-(5-{(E)-3-[2-(4-methyl-piperazin-1-ylmethyl)-phenyl]-3-oxo-propenyl}-pyridin-2-yl)-acrylamide] | 93.48% | 52.66% | –
14 | O=C(/C=C/c1ccc(/C=C/C(=O)c2ccc(N3CCOCC3)cc2)c(F)c1)NO [Ref (*) 29, reference compound] | 20.86% | 11.17% | 282 nM
15 | O=C(/C=C/c1ccc(/C=C/C(=O)c2ccc(N3CCOCC3)cc2)cc1)NO [Ref (*) 41, reference compound] | 8.66% | 2.76% | 238 nM
16 | COc1cc(C(=O)/C=C/c2ccc(/C=C/C(=O)NO)cc2)ccc1CN1CCOCC1 [Ref (*) 48, reference compound] | 35.28% | 2.8% | –
17 | CN1CCN(c2ccc(C(=O)/C=C/c3ccc(/C=C/C(=O)NO)cc3)cc2)CC1 [Ref (*) 59, reference compound] | 33.29% | 9.12% | –
18 | O=C(/C=C/c1ccc(/C=C/C(=O)c2ccccc2)cn1)NO [Ref (*) 69, reference compound] | 13.74% | 5.65% | –
19 | O=C(/C=C/c1ccc(/C=C/C(=O)c2cccs2)cn1)NO [Ref (*) 71, reference compound] | 21.82% | 6.04% | 67.5 nM
20 | O=C(/C=C/c1ccc(/C=C/C(=O)c2ccc(F)c(F)c2)cn1)NO [Ref (*) 72, reference compound] | 15.32% | 10.83% | 20 nM
